Legend:
Experiment in all cases: relative viability (nuclei count vs DMSO), 5 days (fraction); higher = more cells survive
Alisertib + Bortezomib = compound: COc1cc(Nc2ncc3c(n2)-c2ccc(Cl)cc2C(c2c(F)cccc2OC)=NC3)ccc1C(=O)O [Alisertib] + CC(C)C[C@H](NC(=O)[C@H](Cc1ccccc1)NC(=O)c1cnccn1)B(O)O [Bortezomib] (partner 0.002 µM)
In short: (§1)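 Five library-drug doses in √10 steps were combined with a fixed anchor-drug dose, or a single drug was given alone, by pin tool to lung cancer cell lines in 1536-well plates the day after seeding. Nuclei were stained and counted after 5 days. Relative viability is the nuclei count in treated wells over that in vehicle wells, taken as the median of duplicate plates.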

Alisertib + Olaparib = compound: COc1cc(Nc2ncc3c(n2)-c2ccc(Cl)cc2C(c2c(F)cccc2OC)=NC3)ccc1C(=O)O [Alisertib] + O=C(c1cc(Cc2n[nH]c(=O)c3ccccc23)ccc1F)N1CCN(C(=O)C2CC2)CC1 [Olaparib] (partner 8 µM)
In short: as §1

Alisertib + Alpelisib = compound: COc1cc(Nc2ncc3c(n2)-c2ccc(Cl)cc2C(c2c(F)cccc2OC)=NC3)ccc1C(=O)O [Alisertib] + Cc1nc(NC(=O)N2CCC[C@H]2C(N)=O)sc1-c1ccnc(C(C)(C)C(F)(F)F)c1 [Alpelisib] (partner 2 µM)
In short: as §1

Alisertib + Pemetrexed = compound: COc1cc(Nc2ncc3c(n2)-c2ccc(Cl)cc2C(c2c(F)cccc2OC)=NC3)ccc1C(=O)O [Alisertib] + Nc1nc2[nH]cc(CCc3ccc(C(=O)N[C@@H](CCC(=O)O)C(=O)O)cc3)c2c(=O)[nH]1 [Pemetrexed] (partner 0.2 µM)
In short: as §1

Cell Line | relative viability (Alisertib + Bortezomib; first compound 0.005 µM) | relative viability (Alisertib + Bortezomib; first compound 0.01581 µM) | relative viability (Alisertib + Bortezomib; first compound 0.05 µM) | relative viability (Alisertib + Bortezomib; first compound 0.1581 µM) | relative viability (Alisertib + Bortezomib; first compound 0.5 µM) | relative viability (Alisertib + Olaparib; first compound 0.005 µM) | relative viability (Alisertib + Olaparib; first compound 0.01581 µM) | relative viability (Alisertib + Olaparib; first compound 0.05 µM) | relative viability (Alisertib + Olaparib; first compound 0.1581 µM) | relative viability (Alisertib + Olaparib; first compound 0.5 µM) | relative viability (Alisertib + Alpelisib; first compound 0.005 µM) | relative viability (Alisertib + Alpelisib; first compound 0.01581 µM) | relative viability (Alisertib + Alpelisib; first compound 0.05 µM) | relative viability (Alisertib + Alpelisib; first compound 0.1581 µM) | relative viability (Alisertib + Alpelisib; first compound 0.5 µM) | relative viability (Alisertib + Pemetrexed; first compound 0.005 µM) | relative viability (Alisertib + Pemetrexed; first compound 0.01581 µM) | relative viability (Alisertib + Pemetrexed; first compound 0.05 µM) | relative viability (Alisertib + Pemetrexed; first compound 0.1581 µM) | relative viability (Alisertib + Pemetrexed; first compound 0.5 µM)
NCI-H1299 | 0.995 | 0.983 | 0.674 | 0.457 | 0.286 | 0.931 | 0.877 | 0.582 | 0.396 | 0.193 | 1.06 | 1 | 0.815 | 0.522 | 0.279 |  |  |  |  | 
NCI-H1395 |  |  |  |  |  | 0.438 | 0.424 | 0.442 | 0.37 | 0.361 | 0.968 | 1.23 | 0.994 | 0.558 | 0.362 | 0.725 | 0.766 | 0.574 | 0.413 | 0.353
NCI-H1563 | 0.835 | 0.817 | 0.833 | 0.858 | 0.604 |  |  |  |  |  | 0.967 | 0.848 | 0.9 | 0.824 | 0.719 | 0.806 | 0.807 | 0.683 | 0.543 | 0.663
NCI-H1648 |  |  |  |  |  |  | 0.711 | 0.293 | 0.242 | 0.267 |  |  |  |  |  |  | 0.658 | 0.752 | 0.27 | 0.276
NCI-H1650 | 0.175 | 0.21 | 0.174 | 0.182 | 0.199 | 0.813 | 0.61 | 0.16 | 0.163 | 0.204 |  |  |  |  |  | 0.402 | 0.362 | 0.256 | 0.223 | 0.189
NCI-H1703 | 0.337 | 0.287 | 0.134 | 0.147 | 0.102 | 0.534 | 0.387 | 0.198 | 0.153 | 0.141 | 0.298 | 0.311 | 0.211 | 0.157 | 0.18 |  |  |  |  | 
NCI-H1793 |  |  |  |  |  | 0.798 | 0.354 | 0.296 | 0.273 | 0.132 | 0.735 | 0.9 | 0.383 | 0.329 | 0.2 | 0.551 | 0.339 | 0.356 | 0.232 | 0.209
NCI-H1944 |  |  |  |  |  | 0.402 | 0.381 | 0.318 | 0.201 | 0.178 | 0.788 | 0.882 | 0.626 | 0.41 | 0.207 | 0.579 | 0.662 | 0.564 | 0.246 | 0.18
NCI-H2170 |  |  |  |  |  | 0.601 | 0.509 | 0.307 | 0.206 | 0.163 | 0.732 | 0.749 | 0.424 | 0.34 | 0.199 | 0.267 | 0.282 | 0.236 | 0.209 | 0.183
NCI-H2342 |  |  |  |  |  | 0.463 | 0.475 | 0.298 | 0.33 | 0.349 |  |  |  |  |  | 0.774 | 0.75 | 0.57 | 0.542 | 0.418
SK-MES-1 |  |  |  |  |  | 0.594 | 0.614 | 0.351 | 0.192 | 0.168 | 0.681 | 0.717 | 0.341 | 0.172 | 0.139 | 0.904 | 0.787 | 0.661 | 0.442 | 0.191

Reference: the supplement of paper PMC10307832
